From paper PMC8794222 (Photochemistry and photobiology, 2020)
Ends that are not written are not given here.

Experiments:
[1] = biological target: T1, extracellular domain of EGFR protein (Homo sapiens, UniProt P00533); settings: cited from earlier work
[2] = biological target: T1, extracellular domain of EGFR protein; test: SPR analysis on immobilized EGFR extracellular domain; type: binding; settings: analyte up to 250 μM, HBS-EP+ with 4% DMSO

2: EGFR-L1 sequence modified with a glycine spacer, amide terminus (GLARLLT-NH2) [compound 2]
Association and dissociation with EGFR ECD by SPR (in words) ([1]; earlier studies): fast association and dissociation

CC1=CC(C)=[N+]2C1=C(CCCC(=O)O)c1c(C)cc(C)n1[B-]2(F)F [BODIPY 1]
Kind of binding to EGFR ECD in SPR sensorgram (in words) [2]: non-specific binding

cyclo(K(N3)larllt) [reference compound]
Binding to EGFR (in words) ([1]; previously shown): high affinity
